Consider 10 compounds from BindingDB's records for doi:10.1016/j.bmcl.2021.128376 (Bristol Myers Squibb Research and Development, 2021).

Structures are written as SMILES.

The assay can be described thus: Inhibition of c-MYC (unknown origin).
Consider `[2H]C([2H])([2H])c1nnn(C)c1-c1cc2c(cc1F)c1ncc(C(C)(C)O)cc1n2[C@H](c1ncccc1F)C1CCOCC1`, for which the IC50 (usually the concentration at which inhibition is half-maximal) is 1.3 nM.
`[2H]C([2H])([2H])c1nnn(C)c1-c1cc2c(cc1F)c1ncc(C(C)(C)O)cc1n2[C@H](c1cc(C)on1)C1CCOCC1` had an IC50 of 2.4 nM. This IC50 lies about 1.8-fold higher than the previous one.
For `[2H]C([2H])([2H])c1nnn(C)c1-c1cc2c(cc1F)c1ncc(C(C)(C)O)cc1n2[C@@H](CCC)c1ncccc1F`, the midpoint of inhibition, the IC50, lay at 0.7 nM.
`Cc1nnn(C)c1-c1cc2c(cn1)c1ncc(C(C)(C)O)cc1n2[C@H](c1ccccc1)C1CCOCC1` [US9725449, Example 364] registered a half-maximal inhibitory concentration (IC50) of 6.9 nM.
Consider `Cc1nnn(C)c1-c1cnc2c3ccc(C(C)(C)O)cc3n([C@H](c3ccccc3)C3CCOCC3)c2c1` [US10112941, Example 54], for which the half-maximal inhibitory concentration (IC50) was found to be 0.7 nM.
`Cc1nnn(C)c1-c1cc(F)c2c3ncc(C(C)(C)O)cc3n([C@H](c3ccccc3)C3CCOCC3)c2c1` [US10683290, Example 11]: the 50% inhibitory concentration (IC50) is 3.4 nM.
As for `Cc1nnn(C)c1-c1ccc2c3ncc(C(C)(C)O)cc3n([C@H](c3ccccc3)C3CCOCC3)c2c1` [US10683290, Example 16], half-maximal inhibition (IC50) was put at 0.2 nM.
With `Cc1nnn(C)c1-c1cc2c(cc1F)c1ncc(C(C)(C)O)cc1n2[C@H](c1ccccc1)C1CCOCC1` [US10683290, Example 19], the IC50 stood at 0.8 nM. Against the preceding compound, the IC50 is about 4-fold higher.
On to `Cc1nnn(C)c1-c1ccc2c3ncc(C(C)(C)O)cc3n([C@H](c3ccccc3)C3CCOCC3)c2c1F` [US10683290, Example 20], for which 0.6 nM corresponded to half-maximal inhibition (IC50).
The same measure for `Cc1nnn(C)c1-c1cc2c(cc1Cl)c1ncc(C(C)(C)O)cc1n2[C@H](c1ccccc1)C1CCOCC1` [US10683290, Example 77]: 42 nM.
